Test results from patent publication US10668032B2 (SyneuRx International (Taiwan) Corp., priority 2016, dated 2020).

What was measured:
[1] = test system: primary cortical neuronal culture; assay: Detection of cellular reactive oxygen species (CellROX) after 3-NP in primary cortical culture; assay type: cell-based, rat; conditions: for ROS production induced by 3-NP: 0.5 mM, incubated 24 hours before 3-NP
Procedure: Reactive oxygen species (ROS) are detected on primary cortical neuronal culture by CellROX Oxidative Reagents (catalog number 10444, Life Technologies Corp. USA). […] The cells were then exposed to 2.5 mM 3-NP for 24 hours. Subsequently, […] CellROX Reagent was added, and then incubated for […]. CellROX Green Reagent is a DNA dye, and upon oxidation, it binds to DNA; thus, its signal is localized in the nucleus and mitochondria. ROS were quantified by fluorescence intensity. The samples were observed under a laser scanning confocal microscope Zeiss LSM700 (Zeiss, Germany) equipped with filter sets to detect fluorescent signal.

primary cortical neurons [2] = assay: 3-NP induced toxicity in primary cortical culture (Hoechst staining, MAP-2 immunocytochemistry); assay type: cell-based, rat; conditions: exposure to 3-NP alone (2.5 mM, 24 h); untreated 0.1
Procedure: Primary cortical cultures were prepared from embryonic day 18 (E18) fetal Sprague Dawley (SD) rat brains. The cells were maintained in Neurobasal medium supplemented with B27 (GIBCO/Life Technologies of Thermo Fisher Scientific Corporation) at 37° C. for 7 days to allow growth of dendrites before experimentation.
3-NP (Cat. No. 73803, Sigma, St. Louis, Mo., USA) was dissolved in phosphate-buffered saline (PBS) as a stock solution of 1 M and adjusted to pH 7.4 with 10 M sodium hydroxide. The 3-NP stock solution was then dispensed into 1-ml aliquots, protected from light, and stored at −20° C. until use.
Hoechst staining is used to assess the extent of the cell survival. Cells were fixed in 4% paraformaldehyde (PFA) in phosphate-buffered saline (PBS), incubated with the Hoechst 33342 diluted in PBS (1:1000) for 5-15 minutes. The Hoechst staining is used to assess the extent of the cell survival after the exposure to 2.5 mM 3-NP for 24 hours.
Cells were fixed in 4% PFA and washed in PBS, blocked with 2% bovine serum albumin (BSA) and treated by 0.03% Triton X-100 in PBS, before being incubated with mouse monoclonal antibody against microtubule-associated protein-2 (MAP-2) in 1:150 dilution (Cat. No. MAB378, CHEMICON International, Inc., Temecula, Calif., USA). The goat anti-mouse IgG Alexa fluor-conjugated secondary antibodies (Cat No. A11003, Thermo Scientific) in 1:500 dilution were applied to recognize the primary antibodies of the MAP-2. For confocal microscopy, the coverslips were observed under a laser-scanning confocal microscope (Zeiss LSM700; Oberkochen, Germany) equipped with filter sets to detect the corresponding fluorescent signals.
The cells were then exposed to 2.5 mM 3-NP for 24 hours.
Quantitative analysis was also performed to assess the extents of cell death. At least three vision fields were randomly selected and the averaged numbers of dead cells and all nuclei per vision field on each coverslip were calculated.

SH-SY5Y cells = assay: MPTP toxicity in SH-SY5Y cells, MTT assay; assay type: cell-based, human; conditions: MPTP 750 μM, 24 hrs
Procedure: SH-SY5Y, the human neuroblastoma cell line, was incubated with MPTP (750 μM) for 24 hrs.

primary cortical neurons [3] = assay: Aβ25-35 cytotoxicity in primary cortical culture, cell survival (MTT); conditions: 10 μM Aβ 25-35 for 2 days, then drug 1 mM for 4 days; vs no drug treatment
Procedure: MTT assay was used to assess the extents of cell survival. MTT (3-(4,5-dimethylthiazol-2-yl)-2,5-diphenyltetrazolium bromide) was added to the culture, incubated at 37° C. for 4 hours. Insoluble purple formazan products were yield by living cells. The colorimetric method was used to quantify the surviving cells, and “cell survival (%)” was defined as the mean numbers of surviving cells.
Primary cortical cultures were prepared as previous described. Aβ25-35 (Cat. No. A4559, Sigma) was dissolved in autoclaved ddH2O to make a stock solution of 2 mM, dispensed into aliquots, and immediately stored at −80° C. until use.

[4] = test system: GFAP positive cells in cortical culture; assay: GFAP immunocytochemistry in cortical culture after Aβ25-35; assay type: cell-based, rat; conditions: post-treatment 1 mM
Procedure: Cells were fixed in 4% PFA and washed in PBS, blocked with 2% bovine serum albumin (BSA) and 0.03% Triton X-100 in PBS, and then incubated with mouse monoclonal antibody against microtubule-associated protein-2 (MAP-2) (Cat. No. MAB378, 1:150, CHEMICON International, Inc., Temecula, Calif., USA); rabbit polyclonal antibody against GFAP (Cat. No. Z0334, 1:600, DakoCytomation Denmark A/S, Denmark). The goat anti-mouse IgG Alexa Fluor-conjugated secondary antibodies (1:500; Cat No. A11003, Thermo Scientific); anti-rabbit IgG Alexa Fluor-conjugated secondary antibodies (1:500; Thermo Scientific) were applied respectively to recognize the primary antibodies of the MAP-2 and GFAP.
The coverslips were observed under a digital imaging fluorescence microscope (Olympus BX61; Japan) equipped with filter sets to detect the corresponding fluorescence signals.
Glial fibrillary acidic protein (GFAP) is an intermediate filament protein expressed by cells in the CNS, and is also recognized as an astrocyte maturation marker. Upregulation of GFAP, indicating gliosis, is commonly observed after CNS lesion; therefore, expression of GFAP could be useful to understand the state of neurological diseases.

cortical neurons = assay: Mitochondrial respiration, XF Cell Mito Stress Test (OCR); assay type: cell-based, rat; conditions: 3 mM, pre-treatment 24 h
Procedure: The preparation of primary cortical culture was as described before, but the cells were seeded on XF 96 well cell culture microplates. On the day of assay, culture media were changed to XF Assay medium (Seahorse Biosciences, USA). Prior to assay, plates were transferred into an incubator with CO2 supplementation at 37° C. and kept for 1 hour. The overall OCR was calculated.
The XF Cell Mito Stress Test modulates respiration that target components of the electron transport chain (ETC) in the mitochondria to reveal key parameters of metabolic function. The modulators (oligomycin, FCCP, and a mix of rotenone and antimycin A) are serially injected to measure ATP production, maximal respiration, and non-mitochondrial respiration. Proton leak and spare respiratory capacity are then calculated using these parameters.

[5] = test system: cortical cells with Aβ25-35 exposure; assay: Aβ25-35 cytotoxicity with or without NMDA receptor antagonist MK801, cell survival
Procedure: Aβ25-35 (Cat. No. A4559, Sigma) was dissolved in autoclaved ddH2O to make a stock solution of 2 mM, dispensed into aliquots, and immediately stored at −80° C. until use.
In this study, the application of MK801 could reveal whether the neuroprotective effects of drugs were mediated by NMDA receptor.

| SMILES | ROS production induced by 3-NP [1] | number of GFAP positive cells after Aβ25-35 exposure [4] | spare respiratory capacity (cortical neurons) | other results |
| --- | --- | --- | --- | --- |
| O=C(O)CC[N+](=O)[O-] [3-NP, 3-Nitropropionic acid, reference compound] | – | – | – | increase of ROS production ([1]; 3-NP alone): more than 50%; death index (ratio of dead cells to survived cells) (primary cortical neurons [2]): 0.4 |
| CN1CC=C(c2ccccc2)CC1 [MPTP, 1-methyl-4-phenyl-1,2,3,6-tetrahydropyridine, reference compound] | – | – | – | cell number reduction (SH-SY5Y cells): about 50% |
| [Cl-].[Li+] [lithium chloride, reference compound] | reduce the amount of cellular ROS | significantly reduced | less effective than LiBen | cortical cell survival after Aβ25-35 (primary cortical neurons [3]): statistical improvement |
| O=C([O-])c1ccccc1.[Na+] [sodium benzoate, reference compound] | reduce the amount of cellular ROS | did not influence | less effective than LiBen | protective effect in the presence of MK801 ([5]; 1 mM, MK801 10 μM): blocked; cell survival with Aβ25-35 exposure ([5]; post-treatment 1 mM, MK801 0 μM): elevate the cell survival |
